Reference: PMC8443589, “Modelling human liver fibrosis in the context of non-alcoholic steatohepatitis using a microphysiological system” (Communications Biology, 2021)
Values joined by “and” are separate entries in the source; they are usually repeats but may differ in a detail not shown here. Equal entries are not always repeated. Blank lines part the entries; values can stand above or below the molecule they belong to.

Key:
[1] = tested on: liver MPS NASH model + TGFβ (PHH, KC and HSC co-cultures, high fat); assay: Quantitative confocal imaging of collagen-1 and α-SMA in liver MPS NASH model with TGFβ (Fig 6c); format: cell-based, human; details: for Collagen 1 - fluroscence intensity / aSMA - fluroscence intensity: NASH + TGF, individual replicates; for reduction in collagen-1 deposition / reduction in α-SMA expression: NASH + TGFβ, highest concentrations
Excerpt: The systems biology approach identified TGFβ to be a key driver in creating a more advanced NASH phenotype in the MPS model, with enhanced fibrotic markers and reduced liver function. […] Therefore, we explored how effective pharmacological intervention would be for NASH microtissues with high NPC numbers supplemented with TGFβ and exposed them to varying concentrations of OCA and ELF QD as previously described (Supp. Fig. 6a). […] OCA had the greatest effect on IL-1Rα whereas ELF had the greatest effect on MCP-1 reflecting the fact that while both candidate drugs have anti-inflammatory properties, but their mechanisms of action are different. […] Finally, we used our quantitative fibrosis imaging assay to assess the effect of each candidate drug on collagen-1 deposition and α-SMA expression (Fig. 6c). […] Both candidate drugs caused a significant reduction in collagen-1 deposition and α-SMA expression, with the highest concentrations of OCA and ELF causing an 80% reduction in α-SMA expression and a 75% reduction in collagen-1 deposition (Fig. 6c).
Fig. 6 Using enhanced liver MPS NASH model with TGFβ, Obeticholic acid and Elafibranor modulate disease phenotype to a greater extent than in standard NASH model. PHH, KC and HSC co-cultures were cultured in the MPS platform under high-fat conditions and dosed with varying concentrations of Obeticholic acid (OCA) and Elafibranor (ELF) QD or vehicle control for 10 days, following an initial 4-day pre-culture phase. Throughout the compound dosing period TGFβ was also dosed onto all microtissues (NASH only vehicle control samples were also included in the study for comparison, which were not treated with TGFβ or dosed with any compound). a The secreted cytokine profile from treated liver microtissues was compared to determine the effects of each compound on the inflammatory profile of the liver with samples analysed at day 8 and 14 of the culture. Data were normalised by Z-transformation to allow comparison of all analytes (white = undetected). b The expression of fibrosis-associated biomarkers was analysed on day 14 media samples and compared to NASH + TGFβ control samples. c Liver microtissues were stained for collagen-type I, α-SMA, nuclei (DAPI), phalloidin (green) and imaged by confocal microscopy. Representative images are shown and scale bars 200 µm. Staining of microtissues was quantified by measuring total fluorescence intensity throughout individual microtissues, each data point represents an average of all microtissues per MPS culture (min 8, max 20). All datapoints shown with error bars highlighting means ± SD, all data from a minimum of three independent cultures: all comparisons were made to NASH + TGFβ control samples.
To visualise fibrosis proteins in the liver microtissues, scaffolds were fixed for 15 min in 4% paraformaldehyde following culture in the MPS platform. They were permeabilized with 0.1% Triton-X and blocked with 2% BSA before staining overnight at 4 °C with antibodies against alpha SMA (Abcam, UK - ab7817) and collagen 1 (Rockland, USA—600 401 103 0.5). Scaffolds were then stained with fluorescently conjugated secondary antibodies (Alexa-Fluor 555 goat anti-rabbit #A21429; Alexa-Fluor 647 donkey anti-rabbit #A31573; Alexa-Fluor 555 goat anti-mouse #A21424; Alexa-Fluor 647 goat anti-mouse #A21235 (Thermofisher, UK) along with Phalloidin 488 (Thermofisher, UK) and Hoechst 33342 (Invitrogen) for 1.5 h at room temperature. Scaffolds were washed three times with PBS and mounted onto glass microscope slides with anti-fade mounting medium. Confocal fluorescent images of the stained scaffolds were captured using a Cell Voyager 7000 (CV700, Yokogawa Inc.) automated confocal microscope. Image acquisition was controlled using the SearchFirst functionality of the Wako Software suite (Fujifilm Wako Automation). A workflow was designed to automatically locate and acquire images of each scaffold in a consistent and unbiased manner (Supp. Fig. 1). […]

[2] = tested on: NASH liver microtissues (PHH, KC and HSC co-cultures); assay: Metabolic turnover (T1/2) in NASH liver microtissues in the MPS platform, LC-MS/MS; format: in vitro ADME, human; details: 1 µM, 48 hours
Protocol: (§1) Despite many on-going clinical trials, there is still no approved treatment for NASH, but emerging data provide confidence that NASH is a pharmacologically responsive disease. […] First, we set out to determine an optimal dosing strategy for each of the treatments based on an assessment of their physicochemical properties and pharmacokinetic behaviour within the MPS device (Table 1). Non-specific binding to the MPS device was determined after a 72 h incubation with each candidate drug at 1 μM (Table 1). Both candidate drugs were calculated to have less than 0.1% loss as a consequence of non-specific binding to the MPS device (Table 1). […] Because the hepatocytes within the MPS device are metabolically competent, we evaluated the half-life for each candidate drug in NASH microtissues.
(§2) To determine the metabolic turnover of obeticholic acid and elafibranor in the MPS platform, both compounds were incubated with liver microtissues for 48 h starting at 1 µM and media samples taken at regular intervals (AdooQ Bioscience, UK). The presence of each compound in the cell culture medium was quantified by liquid chromatography-tandem mass spectrometry (LC-MS/MS). Samples were separated using a Waters Acquity UPLC system with an ACE Excel C18-AR column and analysed on a Waters TQ-S Micro mass spectrometer against quantitative standard curves. Both compounds were also assessed for protein binding in HEP-Fat media using rapid equilibrium dialysis (RED) and quantified using the same LC-MS/MS methodology.
(§3) Supplemental Figure 5 – Obeticholic acid and Elafibranor are metabolised in the NASH MPS model.
(§4) The metabolism of a) Elafibranor and b) Obeticholic acid and was assessed in PHH, KC and HSC co-cultures grown in the liver MPS platform for 7 days. Following a double media exchange the compounds were incubated with the microtissues at a starting concentration of 1 µM and media samples taken at regular intervals across 48 hours. Media samples were assessed for the concentration of compound by quantitative LC-MS.
(§5) (1 picture or pasted object on this page, not shown here)

[3] = as above; format: in vitro ADME, human; details: human, NASH liver microtissues grown 7 days, medium sampled across 48 h
Protocol: as §1, §2, §3, §4, §5

Molecule: TGFβ: recombinant TGF beta 1 protein (Abcam), 1 ng/ml cue
collagen-1 and α-SMA signal, fat and TGFβ compared to just fat alone ([1]; NASH microtissues, high NPC): significant increase

metabolism in the NASH MPS model [2]: metabolised | half-life at 1 µM [3]: 16 h
Molecule: CSc1ccc(C(=O)/C=C/c2cc(C)c(OC(C)(C)C(=O)O)c(C)c2)cc1 [Elafibranor]
Collagen 1 - fluroscence intensity ([1]; 1.3 uM, listed as ELF): 1733.28 and 2118.75 and 2931.26 | aSMA - fluroscence intensity ([1]; 1.3 uM, listed as ELF): 730.875 and 499.771 and 815.833 | Collagen 1 - fluroscence intensity ([1]; 13 uM, listed as ELF): 1948.99 and 2325.43 | aSMA - fluroscence intensity ([1]; 13 uM, listed as ELF): 408.818 and 783.286 | Collagen 1 - fluroscence intensity ([1]; 65 uM, listed as ELF): 815.347 and 1263.35 and 1286.58 | aSMA - fluroscence intensity ([1]; 65 uM, listed as ELF): 106.491 and 171.359 and 165.195 | reduction in collagen-1 deposition [1]: 75% | reduction in α-SMA expression [1]: 80%

metabolism in the NASH MPS model [2]: metabolised | half-life at 1 µM [3]: 12 h
Molecule: CC[C@H]1[C@@H](O)[C@@H]2[C@H](CC[C@]3(C)[C@@H]([C@H](C)CCC(=O)O)CC[C@@H]23)[C@@]2(C)CC[C@@H](O)C[C@@H]12 [Obeticholic acid]
Collagen 1 - fluroscence intensity ([1]; 0.25 uM, listed as OCA): 1951.11 and 3372.52 and 2271.93 | aSMA - fluroscence intensity ([1]; 0.25 uM, listed as OCA): 697.585 and 1188.53 and 484.974 | Collagen 1 - fluroscence intensity ([1]; 5 uM, listed as OCA): 1987.74 and 1316.74 and 1611.55 | aSMA - fluroscence intensity ([1]; 5 uM, listed as OCA): 480.346 and 350.765 and 416.589 | Collagen 1 - fluroscence intensity ([1]; 12.5 uM, listed as OCA): 1674.28 and 412.802 and 1126.69 | aSMA - fluroscence intensity ([1]; 12.5 uM, listed as OCA): 287.458 and 39.7737 and 104.277 | reduction in collagen-1 deposition [1]: 75% | reduction in α-SMA expression [1]: 80%
